Test [1] concerns Mycoplasma synoviae. The test can be described thus: MIC, broth-dilution microtiter test (Table III). Format: cell-based. More on the design: unit not given here. As for the experimental part:
(§1) The MIC's in Table II were determined by standard agar-dilution assays. The MIC's in Table III were obtained using a conventional broth-dilution microtiter test.

In test [2] the test system is Mycoplasma hyorhinis. As to the kind of experiment: MIC, broth-dilution microtiter test (Table III). Format: cell-based. Set-up: unit not given here. As for the experimental part:
as §1

Test [3] has as its system Pasteurella multocida 17E. The test can be described thus: MIC, broth-dilution microtiter test (Table III). Type of test: cell-based. Set-up: unit not given here. The conditions noted are these: bovine isolate. As for the experimental part: as §1
Test [4] relates to Staphylococcus aureus. The test can be described thus: MIC, broth-dilution microtiter test (Table III). Type of test: cell-based. Set-up: unit not given here. As for the experimental part: as §1
Test [5] relates to Mycoplasma gallisepticum. The test can be described thus: MIC, broth-dilution microtiter test (Table III). Format: cell-based. Set-up: unit not given here. How it is done:
as §1

Test [6] concerns Streptococcus sp. 80. As to the kind of experiment: MIC, broth-dilution microtiter test (Table III). Format: cell-based. More on the design: unit not given here. As for the experimental part:
as §1

Test [7] has as its system Pasteurella multocida 60A. As to the kind of experiment: MIC, broth-dilution microtiter test (Table III). Type of test: cell-based. Set-up: unit not given here. The conditions noted are these: avian isolate. As for the experimental part: as §1
Test [8] has as its system Staphylococcus aureus V41. As to the kind of experiment: MIC, standard agar-dilution assay (Table II). More on the design: unit not given here. Conditions: Staphylococcus aureus V41, penicillin-resistant strain. Format: cell-based. How it is done:
as §1

Test [9] relates to Staphylococcus aureus X400. The test can be described thus: MIC, standard agar-dilution assay (Table II). Type of test: cell-based. More on the design: unit not given here. The conditions noted are these: Staphylococcus aureus X400, methicillin-resistant strain. How it is done: as §1
Test [10] relates to Haemophilus influenzae Holt. As to the kind of experiment: MIC, standard agar-dilution assay (Table II). Type of test: cell-based. Set-up: unit not given here. The conditions noted are these: ampicillin-sensitive strain. As for the experimental part:
as §1

The test system of test [11] is Streptococcus pneumoniae Park I. The test can be described thus: MIC, standard agar-dilution assay (Table II). Type of test: cell-based. Set-up: unit not given here. As for the experimental part:
as §1

Test [12] concerns Streptococcus pyogenes C203. The test can be described thus: MIC, standard agar-dilution assay (Table II). Format: cell-based. Set-up: unit not given here. As for the experimental part: as §1
The test system of test [13] is Streptococcus Group D X66. As to the kind of experiment: MIC, standard agar-dilution assay (Table II). Type of test: cell-based. Set-up: unit not given here. How it is done: as §1
For test [14], the system named is Staphylococcus aureus S13E. The test can be described thus: MIC, standard agar-dilution assay (Table II). Format: cell-based. More on the design: unit not given here. How it is done: as §1
Test [15] relates to Staphylococcus epidermidis EPI2. As to the kind of experiment: MIC, standard agar-dilution assay (Table II). Type of test: cell-based. Set-up: unit not given here. How it is done:
as §1

Test [16] relates to Streptococcus Group D 9960. As to the kind of experiment: MIC, standard agar-dilution assay (Table II). Type of test: cell-based. More on the design: unit not given here. How it is done: as §1
In test [17] the test system is Haemophilus influenzae R252. As to the kind of experiment: MIC, standard agar-dilution assay (Table II). Type of test: cell-based. More on the design: unit not given here. Conditions: Haemophilus influenzae R252, ampicillin-resistant strain. As for the experimental part: as §1
Test [18] concerns Staphylococcus epidermidis EPI1. The test can be described thus: MIC, standard agar-dilution assay (Table II). Format: cell-based. More on the design: unit not given here. As for the experimental part:
as §1

Test [19] relates to Staphylococcus aureus X1.1. As to the kind of experiment: MIC, standard agar-dilution assay (Table II). Format: cell-based. More on the design: unit not given here. How it is done: as §1
Test [20] deals with Pasteurella multocida. As to the kind of experiment: Treatment of Pasteurella infections in chicks (Table V). Type of test: in vivo, one-day-old chicks. The conditions noted are these: Pasteurella multocida, sc, 4 h; 30 mg/kg by subcutaneous injection one and four hours post challenge; read-out: Deaths in Treated Chicks/Number Treated (converted). How it is done: Certain OMT ester derivatives are active in vivo against Pasteurella infections. Table V summarizes the results of tests in which the ester derivatives were administered to one-day-old chicks at a dosage level of 30 mg/kg by subcutaneous injection one and four hours post challenge of the chicks with Pasteurella multocida (0.1 ml of a 10^-3 dilution of a 20-hour tryptose broth culture of avian P. multocida given subcutaneously). All nonmedicated infected chicks (ten in each control group) died within 24 hours of Pasteurella challenge.

For test [21], the system named is Pasteurella haemolytica 41D. The test can be described thus: MIC, broth-dilution microtiter test (Table III). Set-up: unit not given here. Type of test: cell-based. How it is done: as §1
Test [22] relates to Pasteurella haemolytica 22C. The test can be described thus: MIC, broth-dilution microtiter test (Table III). Format: cell-based. More on the design: unit not given here. As for the experimental part:
as §1

The test system of test [23] is Pasteurella multocida 68C. The test can be described thus: MIC, broth-dilution microtiter test (Table III). Format: cell-based. More on the design: unit not given here. How it is done:
as §1

Test [24] relates to Pasteurella haemolytica 23C. As to the kind of experiment: MIC, broth-dilution microtiter test (Table III). Format: cell-based. Set-up: unit not given here. How it is done: as §1
Test [25] deals with Pasteurella multocida 22A. As to the kind of experiment: MIC, broth-dilution microtiter test (Table III). Type of test: cell-based. More on the design: unit not given here. As for the experimental part:
as §1

The test system of test [26] is Pasteurella multocida 40G. As to the kind of experiment: MIC, broth-dilution microtiter test (Table III). Format: cell-based. Set-up: unit not given here. How it is done: as §1
The subject of test [27] is Streptococcus pyogenes C203. The test can be described thus: ED50 in mice with experimental infections (Table IV). Format: in vivo. Conditions: Streptococcus pyogenes, doses given 1 and 4 hours postinfection. As for the experimental part:
The OMT ester derivatives of this invention have shown in vivo antimicrobial activity against experimental bacterial infections caused by gram-positive bacteria. When two doses of test compound were administered to mice with experimental infections, the activity observed was measured as an ED50 value [effective dose in mg/kg to protect 50% of the test animals: see Warren Wick, et al., J. Bacteriol. 81, 233-235 (1961)].
^a mg/kg × 2; doses given 1 and 4 hours postinfection

Where [28] appears, read: C203, oral, read-out: ED50, Oral.
The mark [29] stands for this setting: C203, sc, subcutaneous, read-out: ED50, Subcutaneous.

Like-named read-outs stand apart in the source and are kept apart here. Bounds are passed on as bounds.

In the case of `CCCC(=O)OCC1C=C(C)C=CC(=O)C(C)CC(CC=O)C(OC2OC(C)C(OC(C)=O)C(N(C)C)C2OC(C)=O)C(C)C(O)CC(=O)OC1CC` (centres unmarked) [Compound 15], the “minimal inhibitory concentration (MIC)” value in test [1] is less than 0.05; in test [2] it was 0.78; in test [3] it was 1.56; in test [4], 0.39; in test [5] it was less than 0.05; in test [6], 0.097. Moreover, the “minimal inhibitory concentration (MIC)” value is given as 1.56 in [7]; 0.5 in [8]; 0.5 in test [9]; 2 in test [10]; 0.25 in test [11]; 0.25 in test [12]. Also, the “minimal inhibitory concentration (MIC)” value in test [13] is 0.5; in [14] it was 0.25; in test [15] it was 0.5; in test [16] it was 0.5; in test [17], 2; in [18], 0.25. Moreover, the “minimal inhibitory concentration (MIC)” value in [19] was determined as 0.25. The mortality at 30 mg/kg in test [20] was 100%.

As to `CCCCCCCC(=O)OCC1C=C(C)C=CC(=O)C(C)CC(CC=O)C(OC2OC(C)C(O)C(N(C)C)C2OC(C)=O)C(C)C(O)CC(=O)OC1CC` (centres unmarked) [Compound 25], the “minimal inhibitory concentration (MIC)” value in test [1] was found to be 1.56; in [2], 0.78; in [21], 12.5; in test [22], 12.5; in [23], 6.25; in test [24] it was 12.5. The “minimal inhibitory concentration (MIC)” value in test [3] is reported as 6.25; in [4] it was 0.097; in test [5] it was less than 0.05; in test [6], 0.195; in [25], 25; in [7] it was 6.25. Moreover, the “minimal inhibitory concentration (MIC)” value in test [8] worked out at 0.25; in test [9], 0.5; in [13], 1; in test [14], 0.25; in test [15], 0.5; in test [16], 0.5. Also, the “minimal inhibitory concentration (MIC)” value in [18] and in test [19] was 0.25 each time. For the same compound, the mortality at 30 mg/kg in [20] is 100%.

For the compound `CCC(=O)OC1C(C)OC(OC2C(CC=O)CC(C)C(=O)C=CC(C)=CC(CO)C(CC)OC(=O)CC(O)C2C)C(OC(=O)CC)C1N(C)C` (centres unmarked) [Compound 4], the “minimal inhibitory concentration (MIC)” value came to 0.78 in test [1]; 1.56 in test [2]; 12.5 in test [21]; 6.25 in [22]; 1.56 in [23]; 6.25 in [24]. Besides, the “minimal inhibitory concentration (MIC)” value was 3.12 in [3]; 1.56 in test [4]; 0.39 in [5]; less than 0.78 in test [6]; 3.12 in test [25]; 3.12 in [7]. Also, the “minimal inhibitory concentration (MIC)” value in test [26] was determined as 6.25; in [8], 4; in [9] it was 2; in [10], 4; in [11], 8; in test [12], 0.5. In addition, the “minimal inhibitory concentration (MIC)” value in [13] stood at 1; in test [14], 2; in test [15] it was 4; in test [16] it was 2; in [17] it was 4; in [18], 1. Also, the “minimal inhibitory concentration (MIC)” value in [19] was 2. The 50% effective dose (ED50) (in general, the dose at which the effect has come halfway, by size or by number of responders) in test [27] (setting [28]) was determined as 167 mg/kg; in test [27] (setting [29]) it was 5.7 mg/kg.

With `CCC1OC(=O)CC(O)C(C)C(OC2OC(C)C(OC(C)=O)C(N(C)C)C2OC(C)=O)C(CC=O)CC(C)C(=O)C=CC(C)=CC1COS(C)(=O)=O` (centres unmarked) [Compound 45], the “minimal inhibitory concentration (MIC)” value in test [1] is recorded as 0.39; in [2], 3.12; in [21] it was 6.25; in test [22] it was 6.25; in test [23], 1.56; in test [24], 3.12. The “minimal inhibitory concentration (MIC)” value came to 3.12 in test [3]; 0.78 in [4]; 0.39 in test [5]; 0.195 in test [6]; 3.12 in [25]; 1.56 in test [7]. In addition, the “minimal inhibitory concentration (MIC)” value in test [8] is listed as 2; in test [9] it was 2; in test [13] it was 1; in test [14], 1; in test [15] it was 2; in test [16] it was 1. Further, the “minimal inhibitory concentration (MIC)” value in [18] stood at 0.5; in test [19] it was 1. The mortality at 30 mg/kg in test [20] is 100%.

`CCC1OC(=O)CC(O)C(C)C(OC2OC(C)C(O)C(N(C)C)C2OC(=O)Cc2ccccc2)C(CC=O)CC(C)C(=O)C=CC(C)=CC1CO` (centres unmarked) [Compound 52, 2'-O-(Phenylacetyl)-OMT]: the “minimal inhibitory concentration (MIC)” value is given as 1.56 in test [1]; 3.12 in test [2]; 6.25 in test [21]; 25 in [22]; 6.25 in [23]; 12.5 in [24]. Further, the “minimal inhibitory concentration (MIC)” value in test [3] is on record as 3.12; in test [4], 1.56; in test [5], 3.12; in [6], 0.78; in [25], 3.12; in [7] it was 1.56. In addition, the “minimal inhibitory concentration (MIC)” value in [26] is listed as 3.12; in [8], 1; in [9], 2; in test [10], 2; in [11] it was 0.06; in test [12] it was 0.25. For the same compound, the “minimal inhibitory concentration (MIC)” value in test [13] turned out to be 0.5; in test [14], 1; in [15], 2; in [16] it was 1; in test [17] it was 0.5; in test [18], 0.5. Besides, in test [19], the “minimal inhibitory concentration (MIC)” value worked out at 0.5. The ED50 in test [27] (setting [28]) amounted to 92 mg/kg; in test [27] (setting [29]) it was 2.1 mg/kg.

These data come from patent publication US4401660A, “Ester derivatives of 5-O-mycaminosyl tylonolide and method of using same” (Eli Lilly and Company, priority 1981, dated 1983).
